In patent US10508108B2, “Tricyclic compounds as inhibitors of mutant IDH enzymes” (Merck Sharp & Dohme Corp., priority 2014, dated 2019):

target: R132H mutant IDH1 enzyme (Homo sapiens (Human), UniProt O75874, R132H); assay: R132H IDH1 Enzymatic Assay; type: biochemical; conditions: R132H mutant IDH1 enzyme 1.5 nM final; luminescence (Kinase-GLO) readout
Procedure: R132H IDH1 Enzymatic Assay
Luminescence is measured using a PerkinElmer Envision plate reader.

Sequence of R132H mutant IDH1 enzyme (O75874 whole entry R132H): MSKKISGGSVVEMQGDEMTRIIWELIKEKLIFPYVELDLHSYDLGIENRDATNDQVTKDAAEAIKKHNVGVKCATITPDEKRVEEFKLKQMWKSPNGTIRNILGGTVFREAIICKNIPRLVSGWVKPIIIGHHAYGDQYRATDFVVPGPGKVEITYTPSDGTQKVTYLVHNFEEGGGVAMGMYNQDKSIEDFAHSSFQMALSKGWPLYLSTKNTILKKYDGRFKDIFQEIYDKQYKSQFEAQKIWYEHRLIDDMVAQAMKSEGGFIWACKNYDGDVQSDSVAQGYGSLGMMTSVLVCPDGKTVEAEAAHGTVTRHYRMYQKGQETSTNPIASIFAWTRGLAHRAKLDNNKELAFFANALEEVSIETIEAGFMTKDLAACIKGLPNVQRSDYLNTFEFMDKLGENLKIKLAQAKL

| Structure (SMILES) | IC50 [nM] |
| --- | --- |
| COC1CC2CCC(C1)C2C(=O)N1Cc2cccnc2Nc2ccc(N3CCOCC3)cc21 (centres unmarked) [Example 1, 6-{[(3r,8r)-3-Methoxybicyclo[3.2.1]oct-8-yl]carbonyl}-8-morpholin-4-yl-6,11-dihydro-5H-pyrido[2,3-b][1,5]benzodiazepine] | 1050 |
| COC1CC2CCC(C1)C2C(=O)N1Cc2cccnc2Nc2ccc(N3CCOCC3)cc21 (centres unmarked) [Example 2, 6-{[(3s,8s)-3-methoxybicyclo[3.2.1]oct-8-yl]carbonyl}-8-morpholin-4-yl-6,11-dihydro-5H-pyrido[2,3-b][1,5]benzodiazepine] | 226 |
| CC(C)[C@@H]1COC(=O)N1c1ccc2c(c1)N(C(=O)[C@]13C[C@H]4C[C@H](C[C@H](C4)C1)C3)Cc1cccnc1N2 [Example 119, (4R)-4-(1-Methylethyl)-3-{6-[(3S,5S,7S)-tricyclo[3.3.1.1˜3,7˜]dec-1-ylcarbonyl]-6,11-dihydro-5H-pyrido[2,3-b][1,5]benzodiazepin-8-yl}-1,3-oxazolidin-2-one] | 22 |
| O=C(C1C[C@H]2COC[C@@H](C1)N2CC(F)(F)F)N1Cc2cccnc2Nc2ccc(N3C[C@H]4CC[C@@H]3CO4)cc21 (stereo partly drawn) [Example 129, (8-((1R,4R)-2-Oxa-5-azabicyclo[2.2.2]octan-5-yl)-5,11-dihydro-6H-benzo[b]pyrido[2,3-e][1,4]diazepin-6-yl)((1R,5S)-9-(2,2,2-trifluoroethyl)-3-oxa-9-azabicyclo[3.3.1]nonan-7-yl)methanone] | 6 |
| O=C(C1C[C@H]2COC[C@@H](C1)N2CC(F)(F)F)N1Cc2cccnc2Nc2ccc(N3C[C@@H]4CC[C@H]3CO4)cc21 (stereo partly drawn) [Example 130, (8-((1 S,4S)-2-oxa-5-azabicyclo[2.2.2]octan-5-yl)-5,11-dihydro-6H-benzo[b]pyrido[2,3-e][1,4]diazepin-6-yl)((1R,5S)-9-(2,2,2-trifluoroethyl)-3-oxa-9-azabicyclo[3.3.1]nonan-7-yl)methanone] | 5 |
